From publication PMC7228129, “Evaluation of Developmental Toxicity, Developmental Neurotoxicity, and Tissue Dose in Zebrafish Exposed to GenX and Other PFAS” (Environmental Health Perspectives, 2020)
Entries after “also recorded” stand apart in the source; their conditions may differ. Where two headings read alike, the source gives them in different places.

What was measured:
zebrafish [1] = test: Developmental toxicity (DevTox) assay; assay type: in vivo, Danio rerio; settings: for Developmental toxicity outcome / EC50: scored 6 dpf; for DevTox assay phenotype: Table 5 summary, this study (some rows also list literature); for EC50: Hill fit
Experimental: (§1) At 0 dpf, zebrafish embryos were bleached as previously described ([Tal et al. 2017]). A single embryo at the dome-to-epiboly stages ([Kimmel et al. 1995]) was placed into each individual well of a 96-well plate containing a 40-μm nylon mesh filter (Millipore, Catalog No. MANMN4010) with 400μL of 10% Hanks’ balanced salt solution (HBSS) per well. Filter inserts containing zebrafish embryos were transferred to 96-well culture trays (Millipore, Catalog No. MAMCS9610) containing 250μL of 10% HBSS ([Westerfield 2007]) and 1μL of 250× working solutions per well. A final concentration of 0.4% DMSO was used for all exposure groups and as a vehicle control. In the case of GenX Free Acid in Study 2 (Figure 1), DI water was used as a vehicle control. Daily, from 1–5 dpf, plates underwent 100% media changes to refresh chemical dosing solutions by blotting (Brandel; Catalog No. FPXLR-196) and transferring mesh inserts containing zebrafish to new bottom plates (Millipore; Catalog No. MAMCS9610). To minimize evaporation, plates were sealed (Biorad; Catalog No. MSA5001) and wrapped with parafilm. Plates were maintained on a 14 h:10 h light cycle at 26.0°C and scored daily for death, malformations, hatching, and swim bladder inflation. At 6 dpf, plates were evaluated by two independent observers and DevTox or DNT assays were performed or media and tissue were collected for analytical chemistry analyses as described below.
In Study 1 (Figure 1), zebrafish were exposed, as described in the “Chemical Exposures” section, to 0.04, 0.1, 0.4, 1.1, 3.1, 9.3, 27.2, or 80.0μM PFOS, PFOA, PFHxS, PFHxA, or ADONA, or 0.4% DMSO. Six 96-well plates were tested with a single chemical concentration included on each microtiter plate. Subsequently, as part of Study 1, zebrafish were exposed to 0.04, 0.1, 0.4, 1.1, 3.1, 9.3, 27.2, or 80.0μM PFESA1, or 0.4% DMSO. In Study 2, GenX Free Acid diluted in DI water was tested by exposing zebrafish to 0.04, 0.1, 0.4, 1.1, 3.1, 9.3, 27.2, or 80.0μM of the compound or DI water. […] Zebrafish were exposed to 1.7, 3.1, 5.5, 9.8, 17.6, 31.4, 56.0, or 100.0μM of PFBS, PFHxS, PFHpS, or PFOS or 0.4% DMSO. Subsequently, zebrafish were exposed to 1.7, 3.1, 5.5, 9.8, 17.6, 31.4, 56.0, or 100.0μM PFPeS, or 0.4% DMSO. Chlorpyrifos was used as positive control for malformations ( 8.0μM ) and lethality ( 80.0μM ) ([Padilla et al. 2012]; [Tal et al. 2017]). To conduct DevTox assay assessments, at 6 dpf, two independent observers evaluated zebrafish larvae for survival, hatching, swim bladder inflation, and malformations, including curved body axis, shortened trunk, pericardial edema, yolk sac edema, necrotic yolk sac, pectoral fin abnormalities and head/jaw abnormalities. Directly after assessments, data were reviewed and, in the case of discrepancies, consensus calls were reached. Toxicity values were assigned to descriptive data (i.e., normal=0 , abnormal=20 , severely abnormal=50 , and dead=100 ), modified from a previously described approach ([Padilla et al. 2012]). Briefly, animals with a single malformation were scored as abnormal, whereas animals with ≥2 malformations were scored as severely abnormal.
For the DevTox assay, a Kruskal-Wallace nonparametric one-way analysis of variance (ANOVA) with a Dunn’s multiple comparison test was used to detect differences between exposure groups (* p<0.05 , ** p<0.0001 ) and LOEC values were determined. If a test for linear trend was significant ( p<0.05 ), with developmental toxicity observed at the highest concentration tested, nonlinear regression was performed with a Hill slope curve fitting for half maximal effective concentration ( EC50 ) value determinations.

zebrafish [2] = test: Developmental neurotoxicity (DNT) assay, light/dark locomotor behavior test; assay type: in vivo, Danio rerio; settings: for Developmental neurotoxicity / locomotor activity outcome / Concentration causing hyperactivity in D1 period / Concentration causing hyperactivity in D2 period / Concentration causing hyperactivity in L2 period / Concentration causing hyperactivity in L1 period: tested 6 dpf; for DNT assay phenotype: Table 5 summary, this study (some rows also list literature); for Concentration causing hyperactivity in D1 period: dark 1; for Concentration causing hyperactivity in D1 period / Concentration causing hyperactivity in D2 period / Concentration causing hyperactivity in L2 period / Concentration causing hyperactivity in L1 period: daily 0–5 dpf, vs 0.4% DMSO; for Concentration causing hyperactivity in D2 period: dark 2; for Concentration causing hyperactivity in L2 period: light 2
Experimental: as §1
To increase the likelihood of observing behavioral effects in morphologically normal larvae, the highest concentration evaluated in the DNT assay was the lowest observed effect concentration (LOEC) determined in DevTox assay. Zebrafish were exposed in parallel to 4.4, 7.9, 14.0, 25.1, 44.8, or 80.0μM PFOA, PFHxS, PFHxA, or ADONA or 0.2, 0.3, 0.6, 1.0, 1.8, or 3.1μM PFOS or 0.4% DMSO. Subsequently, as part of Study 1, exposure to 4.4, 7.9, 14.0, 25.1, 44.8, or 80.0μM PFESA1, or 0.4% DMSO was evaluated. In Study 2, zebrafish were exposed to 4.4, 7.9, 14.0, 25.1, 44.8, or 80.0μM GenX Free Acid, or DI water. In Study 3, to increase the likelihood of observing malformations with shorter-chain compounds at multiple test concentrations, the highest concentration evaluated was 100.0μM . Zebrafish were exposed to 5.5, 9.8, 17.6, 31.4, 56.0, or 100.0μM PFBS; 3.1, 5.5, 9.8, 17.6, 31.4, or 56.0μM PFHxS; 1.7, 3.1, 5.5, 9.8, 17.6, or 31.4μM PFHpS; or 0.5, 1.0, 1.7, 3.1, 5.5, or 9.8μM PFOS, or 0.4% DMSO. Subsequently, as part of Study 3, zebrafish were exposed to 3.1, 5.5, 9.8, 17.6, 31.4, or 56.0μM PFPeS, or 0.4% DMSO. Chemical exposures and assessments were performed daily, as described above. To evaluate swimming behavior in a light/dark behavior test, microtiter plates were placed in a dark, temperature-controlled behavior testing room set to 26.0°C for at least 2 h prior to testing. At the time of testing, microtiter plates were placed on a Noldus tracking apparatus. Locomotor activity was recorded (30 frames/s) for a total of 60 min consisting of a 20-min dark acclimation period (0 lux) that was not analyzed followed by a 40-min testing period consisting of a 20-min light period (5.0 lux) and 20-min dark period (0 lux). Videos were analyzed using Ethovision software (version 3.1; Noldus Information Technology) as previously described ([Jarema et al. 2015]). Locomotor activity was collected for each individual fish for each 2-min period (minimum distance moved, set to 0.135cm ). Thus, for a 40-min test, 20 data points were collected per larvae. […] Four additional criteria for inclusion of individual larvae were applied. One, all larvae that were identified as abnormal, severely abnormal, or dead were excluded. Two, larvae with uninflated swim bladders were removed from analyses. Three, individual larvae that moved <2cm in either […] dark period were removed.

zebrafish [3] = settings: Table 5 summary, cited from earlier work
[4] = Study 1, 0.04–80.0 μM daily 0–5 dpf, 0.4% DMSO
[5] = Study 1, 4.4–80.0 μM daily 0–5 dpf, 0.4% DMSO
[6] = Danio rerio, Study 1, 0.04–80.0 μM daily 0–5 dpf, 0.4% DMSO
[7] = Danio rerio, Study 3, 1.7–100.0 μM daily 0–5 dpf, 0.4% DMSO
[8] = Study 1, light 1 (first 10 min light)

For O=C(O)C(F)(F)C(F)OC(F)(F)C(F)(F)C(F)(F)OC(F)(F)F (centres unmarked) [ADONA, 4,8-Dioxa-3H-perfluorononanoate], the “Developmental toxicity outcome” value (zebrafish [1]; [4]) was “did not cause concentration-dependent effects on survival or development; also recorded: failed to provoke developmental toxicity or developmental neurotoxicity; also recorded: negative”, the DevTox assay phenotype (zebrafish [1]) was “Negative^a” and the “Developmental neurotoxicity / locomotor activity outcome” value (zebrafish [2]; [5]) was “did not exhibit differences in locomotor activity; also recorded: failed to provoke developmental toxicity or developmental neurotoxicity; also recorded: negative”. The DNT assay phenotype (zebrafish [2]) was “Negative^a”.

In the case of O=C(O)C(F)(OC(F)(F)C(F)(F)C(F)(F)F)C(F)(F)F (centres unmarked) [GenX Free Acid, Perfluoro-2-propoxypropanoic acid], the “Developmental toxicity outcome” value (zebrafish [1]; Study 2, 0.04–80.0 μM in DI water daily 0–5 dpf) is reported as “negative; also recorded: failed to provoke developmental toxicity or developmental neurotoxicity”, the DevTox assay phenotype (zebrafish [1]) is reported as “Negative^a” and the “Developmental neurotoxicity / locomotor activity outcome” value (zebrafish [2]; Study 2, 4.4–80.0 μM in DI water daily 0–5 dpf) is reported as “negative; also recorded: failed to provoke developmental toxicity or developmental neurotoxicity”. The DNT assay phenotype (zebrafish [2]) was “Negative^a”.

In the case of O=S(=O)(O)C(F)(F)C(F)(F)OC(F)(C(F)(F)F)C(F)(F)OC(F)=C(F)F (centres unmarked) [PFESA1, Perfluoro-3,6-dioxa-4-methyl-7-octene-1-sulfonic acid], the “Developmental toxicity outcome” value (zebrafish [1]; [4]) is reported as “did not cause concentration-dependent effects on survival or development; also recorded: failed to provoke developmental toxicity or developmental neurotoxicity; also recorded: negative”, the DevTox assay phenotype (zebrafish [1]) is reported as “Negative^a” and the “Developmental neurotoxicity / locomotor activity outcome” value (zebrafish [2]; [5]) is reported as “did not exhibit differences in locomotor activity; also recorded: failed to provoke developmental toxicity or developmental neurotoxicity; also recorded: negative”. For the same molecule, the DNT assay phenotype (zebrafish [2]) was “Negative^a”.

With O=C(O)C(F)(F)C(F)(F)C(F)(F)C(F)(F)C(F)(F)F [PFHxA, Perfluorohexanoic acid] the “Developmental toxicity outcome” value (zebrafish [1]; [4]) was “did not cause concentration-dependent effects on survival or development; also recorded: no observed developmental toxicity identified at the highest concentration tested”, the DevTox assay phenotype (zebrafish [1]) was “Negative” and the “Developmental neurotoxicity / locomotor activity outcome” value (zebrafish [2]; [5]) was “hyperactivity in the L2, D1, and D2 periods”. For the same molecule, the “Concentration causing hyperactivity in D1 period” value (zebrafish [2]; Study 1) was 14.0 to 25.1 µM, the “Concentration causing hyperactivity in D2 period” value (zebrafish [2]; Study 1) was 14.0 to 25.1 µM and the “Concentration causing hyperactivity in L2 period” value (zebrafish [2]; Study 1) was 25.1 µM. For the same molecule, the DNT assay phenotype (zebrafish [2]) was “Hyperactivity^a”.

In the case of O=S(=O)(O)C(F)(F)C(F)(F)C(F)(F)C(F)(F)C(F)(F)C(F)(F)F [PFHxS, Perfluorohexanesulfonic acid], the EC50 (zebrafish [1]; [6]) is reported as 92.7 µM, the EC50 (zebrafish [1]; [7]) is reported as 228 µM and the “Developmental toxicity outcome” value (zebrafish [1]; [4]) is reported as “same morphological phenotypes as PFOS”. For the same molecule, the DevTox assay phenotype (zebrafish [1]) was “Positive”, the “Concentration causing hyperactivity in L1 period” value (zebrafish [2]; [8]) was 14.0 to 25.1 µM and the “Concentration causing hyperactivity in L2 period” value (zebrafish [2]; Study 1) was 14.0 µM. For the same molecule, the “Concentration causing hyperactivity in D1 period” value (zebrafish [2]; Study 3) was 17.6 µM, the “Concentration causing hyperactivity in D2 period” value (zebrafish [2]; Study 3) was 17.6 µM and the “Concentration causing hyperactivity in L2 period” value (zebrafish [2]; Study 3) was 17.6 to 31.4 µM. For the same molecule, the DNT assay phenotype (zebrafish [2]) was “Hyperactivity^a” and the DNT assay phenotype (zebrafish [3]; ref Khezri et al. 2017) was “Negative”.

For O=C(O)C(F)(F)C(F)(F)C(F)(F)C(F)(F)C(F)(F)C(F)(F)C(F)(F)F [PFOA, Perfluoro-n-octanoic acid], the “Developmental toxicity outcome” value (zebrafish [1]; [4]) was “did not cause concentration-dependent effects on survival or development; also recorded: negative”, the DevTox assay phenotype (zebrafish [1]) was “Negative” and the “Developmental neurotoxicity / locomotor activity outcome” value (zebrafish [2]; [5]) was “did not exhibit differences in locomotor activity; also recorded: negative”. For the same molecule, the DNT assay phenotype (zebrafish [2]) was “Negative” and the DNT assay phenotype (zebrafish [3]; ref Ulhaq et al. 2013b) was “Hyperactivity”.

In the case of O=S(=O)(O)C(F)(F)C(F)(F)C(F)(F)C(F)(F)C(F)(F)C(F)(F)C(F)(F)C(F)(F)F [PFOS, Perfluorooctanesulfonic acid], the EC50 (zebrafish [1]; [6]) is reported as 7.5 µM, the EC50 (zebrafish [1]; [7]) is reported as 28.2 µM and the “Developmental toxicity outcome” value (zebrafish [1]; [4]) is reported as “failed swim bladder inflation and ventroflexion of the tail”. The EC50 (zebrafish [1]; [4]) was 7.54 µM, the EC50 (zebrafish [1]; Study 3, 1.7–100.0 μM daily 0–5 dpf, 0.4% DMSO) was 28.2 µM and the DevTox assay phenotype (zebrafish [1]) was “Positive”. The “Concentration causing hyperactivity in D1 period” value (zebrafish [2]; Study 1) was 0.6 to 1.8 µM, the “Concentration causing hyperactivity in L1 period” value (zebrafish [2]; [8]) was 1.0 µM and the “Concentration causing hyperactivity in L2 period” value (zebrafish [2]; Study 1) was 0.6 to 1.8 µM. For the same molecule, the “Concentration causing hyperactivity in D1 period” value (zebrafish [2]; Study 3) was 1.0 µM, the “Concentration causing hyperactivity in D2 period” value (zebrafish [2]; Study 3) was “no effect” and the “Concentration causing hyperactivity in L1 period” value (zebrafish [2]; Study 3, light 1) was 1.7 to 3.1 µM. The “Concentration causing hyperactivity in L2 period” value (zebrafish [2]; Study 3) was 1.7 to 3.1 µM, the DNT assay phenotype (zebrafish [2]) was “Hyperactivity” and the DNT assay phenotype (zebrafish [3]; ref Ulhaq et al. 2013b) was “Hypoactivity”.
